Source: patent US20050101595A1, “N-containing cycloalkyl-substituted amino-thiazole derivatives and pharmaceutical compositions for inhibiting cell proliferation and methods for their use” (PFIZER INC., priority 2003, published 2005)
Where a name gives a salt, the structure may show the parent alone. Read-outs that look alike come from different tables or passages of the source.

Tests used:
HCT-116 cell line = experiment: Inhibition of cell growth, tetrazolium salt (MTT) assay; assay type: cell-based; details: for IC50: Homo sapiens, HCT-116, 120 h, MTT, three to five days, read-out: HCT-116 IC50; for HCT-116 % Inhibition at 0.1 μM: 0.1 μM compound; for HCT-116 % Inhibition at 0.25 μM: 0.25 μM compound
Procedure, shortened: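 HCT-116 cells in McCoy's 5A medium received compound 4 h after plating (0.5% v/v DMSO) and were incubated three to five days at 37° C, 5% CO2. MTT (0.2 mg/mL final) then added for 4 h; DMSO-solubilized formazan read at 540 nm against 0.5% DMSO-treated controls.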

CDK2/Cyclin A = CDK2/Cyclin A (Homo sapiens, UniProt P24941); experiment: Inhibition of CDK2/Cyclin A Retinoblastoma Kinase Activity; assay type: biochemical; details: for Ki: apparent Ki, CDK2/proteolyzed cyclin A, Rb fragment substrate, 25 μM ATP
Procedure, shortened: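 Baculovirus-expressed CDK2 complexed with proteolyzed cyclin A (10 or 19 nM), Rb fragment substrate, 25 μM [32P/33P]ATP, HEPES pH 7.4, 30 °C for 60 or 75 min under initial-rate conditions. Filter capture and phosphorimager readout; apparent Ki fitted to competitive or tight-binding competitive inhibition.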

[1] = target: human CDK4 and genetically truncated (1-264) cyclin D3 (Homo sapiens, UniProt P11802); experiment: Inhibition of CDK4/Cyclin D Retinoblastoma Kinase Activity; assay type: biochemical; details: for Ki: apparent Ki, CDK4/truncated cyclin D3, Rb fragment substrate, 25 μM ATP; for CDK4 % Inhibition at 0.03 μM: 0.03 μM compound
Sequence of human CDK4 and genetically truncated (1-264) cyclin D3 (P11802 whole entry, the tested form may be a part): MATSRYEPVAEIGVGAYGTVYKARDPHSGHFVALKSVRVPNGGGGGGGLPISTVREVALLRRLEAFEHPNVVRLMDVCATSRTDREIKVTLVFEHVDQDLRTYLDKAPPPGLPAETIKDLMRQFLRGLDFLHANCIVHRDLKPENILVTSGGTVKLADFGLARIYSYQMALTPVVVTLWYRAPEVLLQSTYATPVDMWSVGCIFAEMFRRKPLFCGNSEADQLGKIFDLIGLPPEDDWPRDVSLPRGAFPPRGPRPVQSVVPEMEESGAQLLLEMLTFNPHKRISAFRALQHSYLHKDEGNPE
Sequence of human CDK4 and genetically truncated (1-264) cyclin D3 (P30281 1-264 partner): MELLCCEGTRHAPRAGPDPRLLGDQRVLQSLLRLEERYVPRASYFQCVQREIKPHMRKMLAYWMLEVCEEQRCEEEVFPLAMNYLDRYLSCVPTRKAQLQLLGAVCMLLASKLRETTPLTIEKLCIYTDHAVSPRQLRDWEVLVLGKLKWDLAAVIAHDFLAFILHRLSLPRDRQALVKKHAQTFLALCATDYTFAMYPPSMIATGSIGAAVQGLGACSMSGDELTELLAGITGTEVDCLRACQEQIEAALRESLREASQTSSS
Procedure, shortened: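 Human CDK4/truncated cyclin D3 (1-264) complex from baculovirus-infected insect cells, 5 nM, phosphorylating Rb fragment (residues 386-928, His-tagged) with 25 μM [32/33P]ATP in HEPES pH 7.4, MgCl2, 2% DMSO at 30° C. for 20 min (60 min for tight binders). Filter-captured radioactivity by phosphorimager; apparent Ki from competitive or tight-binding fits.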

COc1ccc(S(=O)(=O)N2CCC(Nc3nc(N)c(C(=O)c4c(F)cccc4F)s3)CC2)cc1 [Example F7, 1-{4-Amino-2-[1-(4-methoxy-benzenesulfonyl)-piperidin-4-ylamino]-thiazol-5-yl}-1-(2,6-difluoro-phenyl)-methanone]
IC50 (HCT-116 cell line; first HCT-116 column (c4)): 0.19 µM | IC50 (HCT-116 cell line; second HCT-116 column (c5)): 0.46 µM | Ki (CDK2/Cyclin A): 0.0008 µM | Ki [1]: 0.0025 µM

Nc1nc(NC2CCN(Cc3ccccn3)CC2)sc1C(=O)c1c(F)cccc1F [Example M1, 1-[4-Amino-2-(1-pyridin-2-ylmethyl-piperidin-4-ylamino)-thiazol-5-yl]-1-(2,6-difluoro-phenyl)-methanone]
IC50 (HCT-116 cell line; first HCT-116 column (c4)): 2.8 µM | IC50 (HCT-116 cell line; second HCT-116 column (c5)): 5 µM | Ki (CDK2/Cyclin A): > 0.5 µM | Ki [1]: 0.24 µM

Nc1nc(NC2CCN(S(=O)(=O)Cc3ccccc3)CC2)sc1C(=O)c1c(F)cccc1F [Example P25]
HCT-116 % Inhibition at 0.1 μM (HCT-116 cell line; Table 3): 8% | HCT-116 % Inhibition at 0.25 μM (HCT-116 cell line; Table 3): 33% | CDK2 % Inhibition at 0.03 μM (CDK2/Cyclin A; 0.03 μM compound, Table 3): 62% | CDK4 % Inhibition at 0.03 μM ([1]; Table 3): 82%

Nc1nc(NC2CCN(C(=O)c3cccnc3)CC2)sc1C(=O)c1c(F)cccc1F [Example Q80]
HCT-116 % Inhibition at 0.1 μM (HCT-116 cell line; Table 4): 10% | HCT-116 % Inhibition at 0.25 μM (HCT-116 cell line; Table 4): 27% | CDK2 % Inhibition at 0.03 μM (CDK2/Cyclin A; 0.03 μM compound, Table 4): 20% | CDK4 % Inhibition at 0.03 μM ([1]; Table 4): 50%

Nc1nc(NC2CCN(S(=O)(=O)c3ccc(Oc4ccncc4)cc3)CC2)sc1C(=O)c1c(F)cccc1F [Example P85]
HCT-116 % Inhibition at 0.1 μM (HCT-116 cell line; Table 3): 12% | HCT-116 % Inhibition at 0.25 μM (HCT-116 cell line; Table 3): 26% | CDK2 % Inhibition at 0.03 μM (CDK2/Cyclin A; 0.03 μM compound, Table 3): −28% | CDK4 % Inhibition at 0.03 μM ([1]; Table 3): 14%

CC(C)(C)c1ccc(C(=O)N2CCC(Nc3nc(N)c(C(=O)c4c(F)cccc4F)s3)CC2)cc1 [Example Q34]
HCT-116 % Inhibition at 0.1 μM (HCT-116 cell line; Table 4): 1% | HCT-116 % Inhibition at 0.25 μM (HCT-116 cell line; Table 4): 27% | CDK2 % Inhibition at 0.03 μM (CDK2/Cyclin A; 0.03 μM compound, Table 4): 28% | CDK4 % Inhibition at 0.03 μM ([1]; Table 4): 56%

Nc1nc(NC2CCN(S(=O)(=O)c3ccc(-c4ccccn4)s3)CC2)sc1C(=O)c1c(F)cccc1F [Example F6, 1-{4-Amino-2-[1-(5-pyridin-2-yl-thiophene-2-sulfonyl)-piperidin-4-ylamino]-thiazol-5-yl}-1-(2,6-difluoro-phenyl)-methanone]
IC50 (HCT-116 cell line; first HCT-116 column (c4)): 0.17 µM | IC50 (HCT-116 cell line; second HCT-116 column (c5)): 0.45 µM | Ki (CDK2/Cyclin A): 0.00043 µM | Ki [1]: 0.00046 µM

N#Cc1cccc(C(=O)N2CCC(Nc3nc(N)c(C(=O)c4c(F)cccc4F)s3)CC2)c1 [Example Q77]
HCT-116 % Inhibition at 0.1 μM (HCT-116 cell line; Table 4): 8% | HCT-116 % Inhibition at 0.25 μM (HCT-116 cell line; Table 4): 33% | CDK2 % Inhibition at 0.03 μM (CDK2/Cyclin A; 0.03 μM compound, Table 4): 44% | CDK4 % Inhibition at 0.03 μM ([1]; Table 4): 72%

Cc1nccn1-c1ccc(S(=O)(=O)N2CCC(Nc3nc(N)c(C(=O)c4c(F)cccc4F)s3)CC2)cn1 [Example G26, 1-(4-Amino-2-{1-[6-(2-methyl-imidazol-1-yl)-pyridine-3-sulfonyl]-piperidin-4-ylamino}-thiazol-5-yl)-1-(2,6-difluoro-phenyl)-methanone]
IC50 (HCT-116 cell line; first HCT-116 column (c4)): 0.14 µM | IC50 (HCT-116 cell line; second HCT-116 column (c5)): 0.22 µM | Ki (CDK2/Cyclin A): 0.00064 µM | Ki [1]: 0.0013 µM

Nc1nc(NC2CCN(S(=O)(=O)c3ccc(Cl)s3)CC2)sc1C(=O)c1c(F)cccc1F [Example P36]
HCT-116 % Inhibition at 0.1 μM (HCT-116 cell line; Table 3): 8% | HCT-116 % Inhibition at 0.25 μM (HCT-116 cell line; Table 3): 26% | CDK2 % Inhibition at 0.03 μM (CDK2/Cyclin A; 0.03 μM compound, Table 3): 54% | CDK4 % Inhibition at 0.03 μM ([1]; Table 3): 66%

Nc1nc(NC2CCN(C(=O)C3CCCC3)CC2)sc1C(=O)c1c(F)cccc1F [Example Q57]
HCT-116 % Inhibition at 0.1 μM (HCT-116 cell line; Table 4): 0% | HCT-116 % Inhibition at 0.25 μM (HCT-116 cell line; Table 4): 32% | CDK2 % Inhibition at 0.03 μM (CDK2/Cyclin A; 0.03 μM compound, Table 4): 32% | CDK4 % Inhibition at 0.03 μM ([1]; Table 4): 40%

Nc1nc(NC2CCN(C(=O)Nc3ccc(-c4ccccc4)cc3)CC2)sc1C(=O)c1c(F)cccc1F [Example O63]
HCT-116 % Inhibition at 0.25 μM (HCT-116 cell line; Table 2): 40% | CDK2 % Inhibition At 0.03 μM (CDK2/Cyclin A; 0.03 μM compound, Table 2): 28% | CDK4 % Inhibition at 0.03 μM ([1]; Table 2): 4%

Nc1nc(NC2CCN(S(=O)(=O)c3ccc(OCc4cccnc4)nc3)CC2)sc1C(=O)c1c(F)cccc1F [Example H8, 1-(4-Amino-2-{1-[6-(pyridin-3-ylmethoxy)-pyridine-3-sulfonyl]-piperidin-4-ylamino}-thiazol-5-yl)-1-(2,6-difluoro-phenyl)-methanone Trifluoroacetic Acid Salt]
IC50 (HCT-116 cell line; first HCT-116 column (c4)): 0.58 µM | IC50 (HCT-116 cell line; second HCT-116 column (c5)): 1.3 µM | Ki (CDK2/Cyclin A): < 0.001 µM | Ki [1]: 0.00067 µM

Nc1nc(NC2CCN(S(=O)(=O)CCCN3CCSCC3)CC2)sc1C(=O)c1c(F)cccc1F [Example K13, 1-(4-Amino-2-{1-[3-(thiomorpholin-4-yl)propane-1-sulfonyl]-piperidin-4-ylamino}-thiazol-5-yl)-1-(2,6-difluoro-phenyl)-methanone.]
IC50 (HCT-116 cell line; first HCT-116 column (c4)): 0.39 µM | IC50 (HCT-116 cell line; second HCT-116 column (c5)): 1.3 µM | Ki (CDK2/Cyclin A): 0.0039 µM | Ki [1]: 0.0025 µM
